Series [1] is described as follows: Dilution of compounds into water (observed solubility). An excerpt:
The monomer, dimer and trimer of compound 48/80 were received as synthesised from Macba Numbere at UCL.

Series [2] deals with PKB Ser473 phosphorylation. The series is described as follows: PKB Ser473 activation synergy experiments (Western blot, NIH3T3 cells primed with NCS). Conditions: for phosphorylation of PKB (Western blot 1, FIG. 1): NIH3T3 cells, 1% NCS 20 minutes then compound 15 minutes. It counts as cell-based. An excerpt: PKB is a protein downsteam effector of PI3K, and becomes phosphorylated on (residues required for its activity) in response to the activation of PI3K. Natal Calf Serum (NCS) is a stimulator of PI3K and thus subsequently results in PKB activation. Therefore the positive control used in experiments is 10% serum and a negative control used is provided with no serum at all.
Compound 48/80 is the condensation product of N-methyl-p-methoxyphenethylamine and formaldehyde and is a mixture of cationic amphiphiles of varying degrees of polymerisation.
In a typical method, NIH3T3 cells were grown in media (GibcoBRL) containing 10% NCS to near confluency in six well plates. The cells were starved using 0.5% serum for 2-3 days. The media was then removed and replaced with serum free media for 15 minutes. Subsequently, 1% NCS was added to reaction wells, and 0%, 1% and 10% NCS to control wells. After 20 minutes incubation, then compound was added, and the wells incubated for a further 15 minutes. Media was removed and sample buffer was added and the cells lysed, boiled, centrifuged.
Samples were subjected to gel electrophoresis by 10% SDS-PAGE and then Western blotted on to PVDF membrane (Biorad) according to standard protocols. Western blots were probed using primary antibodies against PKB purchased from New England Biolabs and secondary antibodies of goat anti-rabbit IgG coupled to horseradish peroxidase (Amersham). The membranes were then developed using a freshly prepared ECL solution according to standard protocols.

Setting [3] is: diluted into water initially, afterwards into DMSO.

Where two headings read alike, the source gives them in different places.

For “Benzeneethanamine-3,3′-methylenebis(4-methoxy-N-methyl) dihydrochloride [dimer]”, the “solubility on dilution into water” value in series [1] (setting [3]) is reported as “solubility problems”.
For the molecule `CNCCc1ccc(OC)cc1` [monomer, N-methyl-p-methoxyphenethylamine], the “solubility on dilution into water” value in series [1] (setting [3]) is “solubility problems”. Moreover, the “overall effect on PKB (conclusion from these studies)” value in series [2] is given as “activating species”. For the same molecule, the “PKB Ser473 phosphorylation (Western blot 3)” value in series [2] (5 μg/mL experiment, controls contain DMSO at 2.5%) is “slight activation above control levels”.
Consider `CNCCc1ccc(OC)c(Cc2cc(CCNC)cc(Cc3cc(CCNC)ccc3OC)c2OC)c1.Cl.Cl.Cl` [trimer], for which the “solubility on dilution into water” value in series [1] is reported as “solubility problems”. Moreover, the “overall effect on PKB (conclusion from these studies)” value in series [2] is given as “inhibiting species”. The “phosphorylation of PKB (Western blot 1, FIG. 1)” value in series [2] (3 μg/mL) is reported as “just below that of 1% serum activation”; in series [2] (6 μg/mL), “almost completely inhibited”.

The record behind these values is patent US20080039527A1, “Calixarenes as Inhibitors of Protein Kinase B” (Imperial College Innovations Ltd., priority 2003, published 2008).
